Test results as given in patent US20170137481A1, “Use of Cell-Permeable Peptide Inhibitors of the JNK Signal Transduction Pathway for the Treatment of Various Diseases” (Xigen Inflammation Ltd., priority 2014, published 2017).

Columns and labels:
[1] = system: light-induced photoreceptor cell death in Sprague-Dawley rats; assay: Photoreceptor light damage in albino rat (ERG, ONL thickness); type: in vivo
Description: The aim of this study was to investigate the dose effect of XG-102 on light-induced photoreceptor cell death.
Test item (XG-102: 30 mg/ml, 3 mg/ml, and 0.3 mg/ml) and vehicle (0.9% NaCl) were administered by intravitreal injection in right eyes the day before induction. The reference (Phenyl-N-test-Butylnitrone (PBN) (50 mg/kg)) and vehicle were intraperitoneally injected 30 min before induction then, 3 times during 12 hours of light exposition, then once after induction. Animals were placed in constant light (7000 lux) for 24 h. Electroretinograms (ERG) were recorded before light treatment and on days 9, 16 and 23 after induction. Eyes were then taken for histology and outer nuclear layer (ONL) thickness assessment. The table below summarizes the allocation of animals in treatment groups:
For the intravitreal injection animals were anesthetized by intramuscular injection of a mixture of xylazine/ketamine. Test item (5 μl) and vehicle (5 μl) were injected in the right eye. The injection was performed under an operating microscope in the supratemporal area at pars plana using a 33G-needle mounted on a 50 μl Hamilton. The filled syringe was mounted into the UltraMicroPump III to achieve accurate injection in microliter range. Reference and vehicle were injected intraperitoneally at a dose volume of 2.5 ml/kg using a 30G-needle mounted on a 1 ml-syringe.
Light Exposure: The rats that had been dark-adapted overnight were exposed for 24 hours to a continuous white fluorescent light (7000 lx) in clear plastic cages. Each cage contained one rat. After exposure, the rats returned to rearing cyclic light conditions.
The body weight of all animals was recorded before the start of the study then at the end of the study. Each day, the general behavior and the aspect of all animals were observed. ERG was recorded before induction and 7, 14 and 21 days after cessation of exposure (Days 9, 16 and 23) on right eyes of dark-adapted and anesthezied animals. The latency times (for a- and b-wave) and the a-wave and b-wave amplitudes were measured for each ERG; the latency times were expressed as millisecond and the a-wave and b-wave as a percentage of the baseline value obtained before light exposure. 15 min before measurement 10 μl Mydriaticum® (0.5% tropicamide) were instilled for pupillary dilatation.
ERG Parameters: • Color: white maximum. • Maximum intensity: 2.6 cd.s/m^2 (0 dB); Duration 0.24 ms; number of flash: 1. • Filter: 50 Hz. • Impedence Threshold: 90 kΩ.
Measurement of the ONL Thickness: After ERG testing, animal was euthanized by an overdose of pentobarbital and the right eyes were enucleated, fixed and embedded in paraffin. Sections (5 μm thick) were performed along the vertical meridian and stained with Trichrome-Masson. The vertical meridian included the optic nerve.
Group mean values and standard deviation were calculated. A statistical Mann and Whitney test was used to evaluate the differences between pair-wise groups. For comparison between time-point into each vehicle groups, a Friedman test was used.

[2] = system: Endotoxin-Induced Uveitis in Lewis rats; assay: Endotoxin-Induced Uveitis (EIU), action duration after subconjunctival administration; type: in vivo, rat
Text: The aim of this study was to evaluate the duration of action of SDD-1002 following sub-conjunctival administration in a rat model of EIU.
90 male Lewis rats were used, age approximately 6-8 weeks (at the induction), 4 weeks (at the injection for the Day-28), 5 weeks (at the injection for the Day-21), 6 weeks (at the injection for the Day-14, Day-7 and for the Day 0), 7 weeks (at the injection for Day-2 and Day-1), and housed by five in standard cages. Animals were allocated to the following groups: Group No. Treatment Dose Time-point
Thus, each animal received a single subconjunctival injection of either XG-102 (20 μg/eye), saline (0.9% NaCl) vehicle control or Solumedrol® (20 μg/eye) into each eye. Methylprednisolone (Solumedrol®) is most commonly used in uveitis as sub-conjunctival treatment.
On Day 0, ocular inflammation was induced by a single footpad injection of liposaccharide (LPS, 1 mg/kg, 0.5 mL/kg Sigma # L6511) on anesthetized animals. LPS powder was reconstituted the day of induction. XG-102 was administered by a single injection (20 microgram/5 microL) in each eye on Day-28 or Day-21 or Day-14 or Day-7 or Day-2 or Day-1 or Day 0 (immediately before induction). Saline control and reference item (Solumedrol®; 20 μg/eye) were administered by a single injection in each eye on Day 0 (immediately before induction).
Animals were examined with a slit-lamp before XG-102 administration (baseline) before induction (Day 0) then 24 h after induction (Day 1). The inflammation was graded using a scoring system as described by Devos A., Van Haren M., Verhagen C., Hoek Zema R., Kijlstra A: Systemic anti-tumor necrosis factor antibody treatment exacerbates Endotoxin Induced Uveitis in the rat. Exp. Eye. Res. 1995; 61: 667-675. Briefly, flare, miosis and hypopion were scored for absence (0), or presence (1), iris hyperemia and cells in the anterior chamber were scored for absence (0), or mild (1) or severe presence (2). The maximum score (sum of the five parameter scores) was 7.
At the end of the evaluation (24 h after induction), animals were euthanized by intravenous injection of overdosed pentobarbital. The aqueous humor was collected immediately for each eye. For quantification of Cellular Infiltration in Aqueous Humor (AH), the sample was diluted 10-fold with PBS before detection. The number of infiltrated cells was manually counted after Giemsa staining under microscope.

[3] = 20 μg/eye, both eyes treated on the day of induction, 24 h after LPS
[4] = 20 μg/eye, both eyes treated on the day of induction, vs vehicle

| SMILES | recovery of the a-wave (% of baseline) ([1]; 50 mg/kg i.p., Day 9) [%] | recovery of the b-wave (% of baseline) ([1]; 50 mg/kg i.p., Day 9) [%] | recovery of the a-wave (% of baseline) ([1]; 50 mg/kg i.p., Day 16) [%] | recovery of the b-wave (% of baseline) ([1]; 50 mg/kg i.p., Day 16) [%] | loss of mean ONL thickness versus untreated eyes ([1]; 50 mg/kg i.p., Day 23) [%] | recovery of the a-wave (% of baseline) ([1]; 50 mg/kg i.p., Day 23) [%] | recovery of the b-wave (% of baseline) ([1]; 50 mg/kg i.p., Day 23) [%] | ERG B-wave amplitude, percent of baseline, Mean ± SD ([1]; rat, in vivo, ip, 50 mg/kg) [%] | ONL thickness ([1]; rat, in vivo, ip, 50 mg/kg) [μm] | ONL thickness Loss (% comparison with control non-induced eye) ([1]; rat, in vivo, ip, 50 mg/kg) [%] | clinical score, mean ([2]; 20 μg/eye on Day 0) | clinical score, median ([2]; 20 μg/eye on Day 0) | reduction of clinical score ([2]; 20 μg/eye on Day 0) [%] | EIU clinical score, Mean ± SEM (n = 20) [2, 3] | EIU clinical score, Median [2, 3] | Inflammatory cells infiltrated into aqueous humor, Mean ± SEM (n = 20) [2, 3] [cells/μL] | Inflammatory cells infiltrated into aqueous humor, Median [2, 3] [cells/μL] | Reduction of clinical scores [2, 4] [%] | Reduction of leucocytes [2, 4] [%] |
| --- | --- | --- | --- | --- | --- | --- | --- | --- | --- | --- | --- | --- | --- | --- | --- | --- | --- | --- | --- |
| CC(C)(C)[N+]([O-])=Cc1ccccc1 [PBN, Phenyl-N-tert-Butylnitrone, reference compound] | 70.4 | 100 | 79.6 | 103.6 | 16 | 76.2 | 102.4 | 100 ± 18.6 | 34.05 ± 4.00 | 16 | – | – | – | – | – | – | – | – | – |
| C[C@H]1C[C@@H]2[C@H]([C@@H](O)C[C@@]3(C)[C@H]2CC[C@]3(O)C(=O)CO)[C@@]2(C)C=CC(=O)C=C12 [methylprednisolone, Methylprednisolone] | – | – | – | – | – | – | – | – | – | – | 2.0±0.2 | 2 | 50 | 2.0 ± 0.2 | 2.0 | 3170 ± 276 | 3385 | 50 | 2 |
